From US6479435B1, “Diaryl ethers and processes for their preparation and herbicidal and desiccant compositions containing them” (ISK Americas Incorporated, priority 1997, dated 2002)

Legend:
Assay type in all cases: in vivo
[1] = tested on: common ragweed (Ambrosia artemisiifolia L., AMBEL); test: Post-emerge greenhouse herbicide test, phytotoxicity rating; conditions: 14 days after application
Summary of the method: (§1)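 Compounds in acetone with 0.25% v/v non-ionic surfactant were track-sprayed at 187 l/ha over plants at the 2-3 leaf stage, at 63 to 1000 g ai/ha. Pots were bottom-watered. Injury was scored visually 14 days later on a 0-100 scale, where 0 is no damage and 100 is complete plant death.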

[2] = tested on: Johnsongrass (Sorghum halepense, SORHA); test: Pre-emerge greenhouse herbicide test, phytotoxicity rating; conditions: 14 days after application, rating scale 0-100
Summary of the method: (§2)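 Seeds sown in sandy loam mix one day before track-sprayer application of compounds in acetone at 125–1000 g ai/ha (187 l/ha), then surface-watered to incorporate and bottom-watered. Visual rating 14 days after application on a 0–100 scale (0 = no damage, 100 = all plants dead).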

[3] = tested on: lambsquarters (Chenopodium album, CHEAL); test: as above; conditions: 14 days after application, rating scale 0-100
Summary of the method: as §2

[4] = tested on: large crabgrass (Digitaria sanguinalis, DIGSA); test: as above; conditions: 14 days after application, rating scale 0-100
Summary of the method: as §2

[5] = tested on: green foxtail (Setaria viridis, SETVI); test: as above; conditions: 14 days after application, rating scale 0-100
Summary of the method: as §2

[6] = tested on: common ragweed (Ambrosia artemisiifolia L., AMBEL); test: as above; conditions: 14 days after application, rating scale 0-100
Summary of the method: as §2

[7] = tested on: barnyardgrass (Echinochloa crusgalli, ECHCG); test: as above; conditions: 14 days after application, rating scale 0-100
Summary of the method: as §2

[8] = tested on: sicklepod (Cassia obtusifolia, CASOB); test: as above; conditions: 14 days after application, rating scale 0-100
Summary of the method: as §2

[9] = tested on: redroot pigweed (Amaranthus retroflexus, AMARE); test: as above; conditions: 500 g ai/ha, 14 days after application, rating scale 0-100
Summary of the method: as §2

[10] = tested on: ivyleaf morningglory (Ipomoea hederacea, IPOHE); test: as above; conditions: 14 days after application, rating scale 0-100
Summary of the method: as §2

[11] = tested on: velvetleaf (Abutilon theophrasti, ABUTH); test: as above; conditions: 14 days after application, rating scale 0-100
Summary of the method: as §2

[12] = tested on: soybean (Glycine max L., var. Pella 86, SOY); test: Pre-emerge greenhouse test, crop damage rating; conditions: 14 days after application, rating scale 0-100
Summary of the method: as §2

[13] = tested on: Johnsongrass (Sorghum halepense, SORHA); test: Post-emerge greenhouse herbicide test, phytotoxicity rating; conditions: 14 days after application
Summary of the method: as §1

[14] = tested on: lambsquarters (Chenopodium album, CHEAL); test: as above; conditions: 14 days after application
Summary of the method: as §1

[15] = tested on: large crabgrass (Digitaria sanguinalis, DIGSA); test: as above; conditions: 14 days after application
Summary of the method: as §1

[16] = tested on: green foxtail (Setaria viridis, SETVI); test: as above; conditions: 14 days after application
Summary of the method: as §1

[17] = tested on: barnyardgrass (Echinochloa crusgalli, ECHCG); test: as above; conditions: 14 days after application
Summary of the method: as §1

[18] = tested on: redroot pigweed (Amaranthus retroflexus, AMARE); test: as above; conditions: 14 days after application
Summary of the method: as §1

[19] = tested on: ivyleaf morningglory (Ipomoea hederacea, IPOHE); test: as above; conditions: 14 days after application
Summary of the method: as §1

[20] = tested on: velvetleaf (Abutilon theophrasti, ABUTH); test: as above; conditions: 14 days after application
Summary of the method: as §1

[21] = tested on: upland rice (Oryza sp., var.Tebonnet, RICE); test: Post-emerge greenhouse test, crop damage rating; conditions: 14 days after application
Summary of the method: as §1

[22] = tested on: field corn (Zea mays L., var. Dekalb 535, CORN); test: Post-emerge greenhouse test, crop damage rating; conditions: 14 days after application
Summary of the method: as §1

[23] = tested on: soybean (Glycine max L., var. Pella 86, SOY); test: Post-emerge greenhouse test, crop damage rating; conditions: 14 days after application
Summary of the method: as §1

[24] = tested on: upland rice (Oryza sp., var.Tebonnet, RICE); test: Pre-emerge greenhouse test, crop damage rating; conditions: 14 days after application, rating scale 0-100
Summary of the method: as §2

[25] = tested on: field corn (Zea mays L., var. Dekalb 535, CORN); test: Pre-emerge greenhouse test, crop damage rating; conditions: 14 days after application, rating scale 0-100
Summary of the method: as §2

## O=c1n(CCCF)nnn1-c1cc(Oc2ncccc2C(F)(F)F)c(Cl)cc1Cl [Compound 6-7]
[1]; 63 g al/ha
  AMBEL phytotoxicity rating (0-100): 0
[1]; 500 g al/ha
  AMBEL phytotoxicity rating (0-100): 30
[2]; 125 g ai/ha
  phytotoxicity rating SORHA: 20
[2]; 500 g ai/ha
  phytotoxicity rating SORHA: 40
[3]; 125 g ai/ha
  phytotoxicity rating CHEAL: 80
[3]; 500 g ai/ha
  phytotoxicity rating CHEAL: 90
[4]; 125 g ai/ha
  phytotoxicity rating DIGSA: 40
[4]; 500 g ai/ha
  phytotoxicity rating DIGSA: 70
[5]; 125 g ai/ha
  phytotoxicity rating SETVI: 80
[5]; 500 g ai/ha
  phytotoxicity rating SETVI: 100
[6]; 125 g ai/ha
  phytotoxicity rating AMBEL: 30
[6]; 500 g ai/ha
  phytotoxicity rating AMBEL: 0
[7]; 125 g ai/ha
  phytotoxicity rating ECHCG: 0
[7]; 500 g ai/ha
  phytotoxicity rating ECHCG: 50
[8]; 125 g ai/ha
  phytotoxicity rating CASOB: 0
[8]; 500 g ai/ha
  phytotoxicity rating CASOB: 60
[9]
  phytotoxicity rating AMARE: 100
[10]; 125 g ai/ha
  phytotoxicity rating IPOHE: 0
[10]; 500 g ai/ha
  phytotoxicity rating IPOHE: 30
[11]; 125 g ai/ha
  phytotoxicity rating ABUTH: 0
[11]; 500 g ai/ha
  phytotoxicity rating ABUTH: 20
[12]; 125 g ai/ha
  crop damage rating SOY: 80
[12]; 500 g ai/ha
  crop damage rating SOY: 90
[13]; 63 g al/ha
  SORHA phytotoxicity rating (0-100): 0
[13]; 500 g al/ha
  SORHA phytotoxicity rating (0-100): 30
[14]; 63 g al/ha
  CHEAL phytotoxicity rating (0-100): 50
[14]; 500 g al/ha
  CHEAL phytotoxicity rating (0-100): 80
[15]; 63 g al/ha
  DIGSA phytotoxicity rating (0-100): 0
[15]; 500 g al/ha
  DIGSA phytotoxicity rating (0-100): 10
[16]; 63 g al/ha
  SETVI phytotoxicity rating (0-100): 20
[16]; 500 g al/ha
  SETVI phytotoxicity rating (0-100): 30
[17]; 63 g al/ha
  ECHCG phytotoxicity rating (0-100): 0
[17]; 500 g al/ha
  ECHCG phytotoxicity rating (0-100): 50
[18]; 63 g al/ha
  AMARE phytotoxicity rating (0-100): 70
[18]; 500 g al/ha
  AMARE phytotoxicity rating (0-100): 80
[19]; 63 g al/ha
  IPOHE phytotoxicity rating (0-100): 0
[19]; 500 g al/ha
  IPOHE phytotoxicity rating (0-100): 50
[20]; 63 g al/ha
  ABUTH phytotoxicity rating (0-100): 0
[20]; 500 g al/ha
  ABUTH phytotoxicity rating (0-100): 70
[21]; 63 g al/ha
  RICE crop damage rating (0-100): 0
[21]; 500 g al/ha
  RICE crop damage rating (0-100): 50
[22]; 63 g al/ha
  CORN crop damage rating (0-100): 0
[22]; 500 g al/ha
  CORN crop damage rating (0-100): 10
[23]; 63 g al/ha
  SOY crop damage rating (0-100): 0
[23]; 500 g al/ha
  SOY crop damage rating (0-100): 30
[24]; 125 g ai/ha
  crop damage rating RICE: 0
[24]; 500 g ai/ha
  crop damage rating RICE: 40
[25]; 125 g ai/ha
  crop damage rating CORN: 0
[25]; 500 g ai/ha
  crop damage rating CORN: 30
